Reference: US11155517B2, “4-substituted phenylamine derivatives and their use to protect crops by fighting undesired phytopathogenic micoorganisms” (PI INDUSTRIES LTD., priority 2016, dated 2021)

What was measured:
Assay type in all cases: cell-based
[1] = system: Alternaria solani; test: Alternaria solani (early blight of tomato/potato) in vitro test, radial growth on Potato Dextrose Agar; conditions: 168 h, 300 ppm, seven days, 25° C., read-out: % control compared to the untreated check (radial growth)
[2] = system: Pyricularia oryzae; test: microbe, parasite or virus in culture; conditions: 168 h, read-out: % control compared to the untreated check (radial growth)
[3] = system: Botrytis cinerea; test: Botrytis cinerea (gray mold) in vitro test, radial growth on Potato Dextrose Agar; conditions: 168 h, 300 ppm, seven days, 22° C., read-out: % (control) compared to the untreated check (radial growth)
[4] = system: Rhizoctonia solani; test: Rhizoctonia solani (rice sheath blight/potato black scurf) in vitro test, radial growth on Potato Dextrose Agar; conditions: 168 h, 300 ppm, seven days, 25° C., read-out: % control compared to the untreated check (radial growth)
[5] = system: Colletotrichum capsici; test: Colletotrichum capsici (anthracnose) in vitro test, radial growth on Potato Dextrose Agar; conditions: Colletotrichum truncatum, 168 h; 300 ppm; seven days, 25° C.; read-out: % control compared to the untreated check (radial growth)

SMILES | inhibition of growth at 300 ppm [1] | inhibition of growth at 300 ppm [2] | inhibition of growth at 300 ppm [3] | inhibition of growth at 300 ppm [4] | inhibition of growth at 300 ppm [5]
Cc1cc(N=CN(CC2CC2)C(C)C)c(C)cc1Cc1ccccc1Cl [Compound 89, N′-(4-(2-chlorobenzyl)-2,5-dimethylphenyl)-N-(cyclopropylmethyl)-N-isopropylformimidamide] | > 75% | > 75% | > 80% | > 80% | –
Cc1cc(N=CN(CC2CC2)C(C)C)c(C)cc1Cc1ccccc1F [Compound 88, N-(cyclopropylmethyl)-N′-(4-(2-fluorobenzyl)-2,5-dimethylphenyl)-N-isopropylformimidamide] | > 75% | > 75% | > 80% | > 80% | –
CCN(C)C=Nc1cc(C(F)(F)F)c(Cc2cccc(Cl)c2)cc1C1CC1 [Compound 265, N′-(4-(3-chlorobenzyl)-2-cyclopropyl-5-(trifluoromethyl)phenyl)-N-ethyl-N-methylformimidamide] | > 75% | > 75% | > 80% | > 80% | –
CCN(C)C=Nc1cc(C)c(Cc2ccccc2C#N)cc1Cl [Compound 100, N′-(2-chloro-4-(2-cyanobenzyl)-5-methylphenyl)-N-ethyl-N-methylformimidamide] | > 75% | > 75% | – | > 80% | > 80%
CCN(C)C=Nc1c(C)cc(Cc2ccc(C3CC3)cc2)c(C)c1C1CC1 [Compound 267, N′-(2-cyclopropyl-4-(4-cyclopropylbenzyl)-3,6-dimethylphenyl)-N-ethyl-N-methylformimidamide] | > 75% | > 75% | > 80% | > 80% | –
CCN(C)C=Nc1cc(Cl)c(Cc2ccccc2C)cc1Cl [Compound 151, N′-(2,5-dichloro-4-(2-methylbenzyl)phenyl)-N-ethyl-N-methylformimidamide] | > 75% | > 75% | > 80% | > 80% | –
CCN(C)C=Nc1cc(C(F)(F)F)c(Cc2cccc(C(F)(F)F)c2)cc1F [Compound 232, N-ethyl-N′-(2-fluoro-5-(trifluoromethyl)-4-(3-(trifluoromethyl)benzyl)phenyl)-N-methylformimidamide] | > 75% | > 75% | > 80% | > 80% | –
CCN(C)C=Nc1cc(C)c(Cc2cccc(C)c2)cc1S(C)(=O)=O [Compound 273, N-ethyl-N-methyl-N′-(5-methyl-4-(3-methylbenzyl)-2-(methylsulfonyl)phenyl)formimidamide] | > 75% | > 75% | > 80% | > 80% | –
CCN(C)C=Nc1cc(Cl)c(Cc2cccc(C)c2)cc1Cl [Compound 141, N′-(2,5-dichloro-4-(3-methylbenzyl)phenyl)-N-ethyl-N-methylformimidamide] | > 75% | > 75% | > 80% | > 80% | –
CCN(C)C=Nc1cc(C)c(Cc2c(F)cccc2F)cc1Cl [Compound 203, N′-(2-chloro-4-(2,6-difluorobenzyl)-5-methylphenyl)-N-ethyl-N-methylformimidamide] | > 75% | > 75% | – | – | > 80%
CCN(C)C=Nc1cc(C#N)c(Cc2cccc(C)c2)cc1C [Compound 251, N′-(5-cyano-2-methyl-4-(3-methylbenzyl)phenyl)-N-ethyl-N-methylformimidamide] | > 75% | > 75% | > 80% | > 80% | –
